Data published in the supplement of paper PMC3937590.
Values belong to the compound of their own block, whether it stands above or below them.

Key:
Assay in all cases: -log10 GI50 (growth inhibition 50%) (-log10(M)); higher = more potent growth inhibition
[1] = test system: HCC1395
How it was run: (§1)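 A value carrying a < qualifier equals the top dose tested. Each compound was tested in triplicate on breast cancer cell lines for 72 hours at nine doses in 1:5 serial dilution, using a luminescence read-out against a time-zero plate. Nonlinear least squares fitting of a Gompertz curve gave GI50, the molar concentration causing the set level of growth inhibition, which is reported as its negative logarithm. The logarithm is base 10.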

[2] = test system: HCC1428
How it was run: as §1

[3] = test system: 600MPE
How it was run: as §1

[4] = test system: UACC812
How it was run: as §1

[5] = test system: HCC1806
How it was run: as §1

[6] = test system: 184A1
How it was run: as §1

[7] = test system: SUM1315MO2
How it was run: as §1

[8] = test system: SUM185PE
How it was run: as §1

[9] = test system: ZR751
How it was run: as §1

[10] = test system: SUM52PE
How it was run: as §1

[11] = test system: SUM225CWN
How it was run: as §1

[12] = test system: HCC1187
How it was run: as §1

[13] = test system: MDAMB175VII
How it was run: as §1

[14] = test system: T47D_KBluc
How it was run: as §1

[15] = test system: HCC1419
How it was run: as §1

[16] = test system: BT483
How it was run: as §1

[17] = test system: MDAMB134VI
How it was run: as §1

[18] = test system: HCC2185
How it was run: as §1

[19] = test system: MCF12A
How it was run: as §1

[20] = test system: HCC3153
How it was run: as §1

[21] = test system: 184B5
How it was run: as §1

[22] = test system: MDAMB157
How it was run: as §1

[23] = test system: MDAMB415
How it was run: as §1

[24] = test system: HCC38
How it was run: as §1

[25] = test system: MCF7
How it was run: as §1

[26] = test system: HCC1143
How it was run: as §1

[27] = test system: BT549
How it was run: as §1

[28] = test system: LY2
How it was run: as §1

[29] = test system: SKBR3
How it was run: as §1

[30] = test system: MCF10F
How it was run: as §1

[31] = test system: BT474
How it was run: as §1

[32] = test system: T47D
How it was run: as §1

[33] = test system: HS578T
How it was run: as §1

[34] = test system: BT20
How it was run: as §1

[35] = test system: MX1
How it was run: as §1

[36] = test system: HCC1569
How it was run: as §1

[37] = test system: SUM149PT
How it was run: as §1

[38] = test system: HCC1937
How it was run: as §1

[39] = test system: HCC70
How it was run: as §1

[40] = test system: HCC1954
How it was run: as §1

[41] = test system: ZR75B
How it was run: as §1

[42] = test system: MCF10A
How it was run: as §1

[43] = test system: SUM229PE
How it was run: as §1

[44] = test system: MDAMB361
How it was run: as §1

[45] = test system: AU565
How it was run: as §1

[46] = test system: MDAMB231
How it was run: as §1

[47] = test system: SUM159PT
How it was run: as §1

[48] = test system: CAMA1
How it was run: as §1

[49] = test system: MDAMB453
How it was run: as §1

- -log10 GI50 [1]: 4.83
- -log10 GI50 [2]: 5.25
- -log10 GI50 [5]: 4.69
- -log10 GI50 [12]: 6.1
- -log10 GI50 [13]: 4.66
- -log10 GI50 [14]: 4.56
- -log10 GI50 [15]: 7.27
- -log10 GI50 [16]: 6.57
- -log10 GI50 [17]: 6.89
- -log10 GI50 [18]: 8.19
- -log10 GI50 [20]: 4.63
- -log10 GI50 [22]: 4.63
- -log10 GI50 [23]: 8.36
- -log10 GI50 [24]: 4.91
- -log10 GI50 [25]: 5.8
- -log10 GI50 [26]: 5.8
- -log10 GI50 [27]: 6.61
- -log10 GI50 [29]: 7.27
- -log10 GI50 [31]: 7.57
- -log10 GI50 [32]: 5.85
- -log10 GI50 [34]: 6.18
- -log10 GI50 [36]: 5.49
- -log10 GI50 [38]: 6.36
- -log10 GI50 [40]: 6.66
- -log10 GI50 [44]: 6.56
Structure (SMILES): CO[C@H]1C[C@@H]2CC[C@@H](C)[C@@](O)(O2)C(=O)C(=O)N2CCCC[C@H]2C(=O)O[C@H]([C@H](C)C[C@@H]2CC[C@@H](OC(=O)C(C)(CO)CO)[C@H](OC)C2)CC(=O)[C@H](C)/C=C(\C)[C@@H](O)[C@@H](OC)C(=O)[C@H](C)C[C@H](C)/C=C/C=C/C=C/1C [Temsirolimus]
- -log10 GI50 [3]: 4.74
- -log10 GI50 [4]: 6.21
- -log10 GI50 [6]: 6.3
- -log10 GI50 [7]: 6.06
- -log10 GI50 [8]: < 3.88
- -log10 GI50 [9]: < 3.88
- -log10 GI50 [10]: 8.82
- -log10 GI50 [11]: 5.6
- -log10 GI50 [19]: 5.03
- -log10 GI50 [21]: 5.29
- -log10 GI50 [28]: 6.85
- -log10 GI50 [30]: 6.11
- -log10 GI50 [33]: 4.66
- -log10 GI50 [35]: 5.45
- -log10 GI50 [37]: 5.21
- -log10 GI50 [39]: 6.49
- -log10 GI50 [41]: 6.97
- -log10 GI50 [42]: 6.38
- -log10 GI50 [43]: 4.87

- -log10 GI50 [1]: 6.03
- -log10 GI50 [2]: 5.85
- -log10 GI50 [5]: 5.97
- -log10 GI50 [12]: 6.05
- -log10 GI50 [13]: 5.44
- -log10 GI50 [15]: < 3.88
- -log10 GI50 [16]: 5.23
- -log10 GI50 [17]: 6.09
- -log10 GI50 [18]: 6.31
- -log10 GI50 [20]: 5.74
- -log10 GI50 [22]: 5.95
- -log10 GI50 [23]: 6.2
- -log10 GI50 [24]: 5.77
- -log10 GI50 [25]: 6.4
- -log10 GI50 [26]: 5.69
- -log10 GI50 [27]: 5.83
- -log10 GI50 [31]: 4.61
- -log10 GI50 [32]: 5.41
- -log10 GI50 [34]: 5.29
- -log10 GI50 [46]: 5.98
- -log10 GI50 [36]: 4.6
- -log10 GI50 [38]: < 3.88
- -log10 GI50 [49]: 6.01
- -log10 GI50 [40]: 6.3
- -log10 GI50 [44]: 6
Structure (SMILES): Cc1cc(C(=O)N2CCN(c3cccc(Cl)c3)CC2)n(-c2ccccc2)n1 [XRP44X]
- -log10 GI50 [3]: < 3.88
- -log10 GI50 [4]: 6.15
- -log10 GI50 [6]: 6.5
- -log10 GI50 [7]: 6.14
- -log10 GI50 [9]: 5.91
- -log10 GI50 [10]: 6.06
- -log10 GI50 [11]: 5.5
- -log10 GI50 [19]: 6.67
- -log10 GI50 [21]: 6.55
- -log10 GI50 [45]: 6.35
- -log10 GI50 [28]: 6.08
- -log10 GI50 [30]: < 3.88
- -log10 GI50 [33]: 6
- -log10 GI50 [35]: 6.04
- -log10 GI50 [47]: 6.21
- -log10 GI50 [37]: 5.88
- -log10 GI50 [39]: 5.97
- -log10 GI50 [48]: 6.01
- -log10 GI50 [41]: 5.9
- -log10 GI50 [42]: 6.55
- -log10 GI50 [43]: 6.6
